The values below are quoted from earlier work in patent US9937141B2, “Carcinoma diagnosis and treatment, based on ODC1 genotype” (The Arizona Board of Regents on Behalf of the University of …, priority 2009, dated 2018).

The subject of series [1] is COX.
For series [2] the following is noted: human, in vivo.
Series [3] relates to tumor putrescine. To be noted: DFMO infusion, without suppressing peripheral platelet counts.
Series [4] has as its system prostoglandin E2 (PGE2). To be noted: 300 mg/day, one month.

For `CC1=C(CC(=O)O)c2cc(F)ccc2/C1=C\c1ccc(S(C)(=O)=O)cc1` [Sulindac sulfone], the COX-inhibitory activity result in series [1] was “lacks COX-inhibitory activity”. Turning to `CC1=C(CC(=O)O)c2cc(F)ccc2/C1=C\c1ccc([S+](C)[O-])cc1` (stereo not shown) [Sulindac, (Z)-5-fluoro-2-methyl-1-((4 (methylsulfin-yl)phenyl)methylene) 1H-indene-3-acetic acid], the “time to peak plasma levels” value (fasting patients) is reported as “about 2 hours”. Further, the “drug absorbed after oral administration” value (oral) is on record as “about 90%”. Moreover, in series [2], the “Skin rash and pruritus, patients affected” value is listed as 5%; the “mild gastrointestinal effects, patients affected” value was roughly 20%. With `NCCCC(N)(C(=O)O)C(F)F` (racemic) [DFMO, 2-(difluoromethyl)-dl-ornithine], the “decrease in tumor putrescine levels” value in series [3] is recorded as 90%. For the molecule `CC(C)Cc1ccc(C(C)C(=O)O)cc1` (stereo not shown) [ibuprofen], the “PGE2 levels in flat mucosa” value in series [4] is listed as “significant decrease”.
